Numbered stars: 1 amine (or outer) side, 2 acyl side, 3 side chain; on linkers, the order of the positions; unused ones are H or OH. Bridge positions count the residues as written; N and C are the ends. Square brackets hold non-standard residues; d marks the D form. Peptide text beside a SMILES is read from it. I, II: the chains in the order shown. Actinocin(9to1) = Cc1c2oc3c(C)ccc(C(=O)[*:1])c3nc-2c(C(=O)[*:2])c(N)c1=O; NMeV = CN[C@H](C(=O)O)C(C)C; Sar = CNCC(=O)O

One data set deals with SV-80 cells. The data set can be described thus: Sensitization of SV-80 cells to the cytolytic effect of TNF, neutral red uptake. The data set is classed as cell-based, human. The following applies: for Cell viability upon treatment with TNF (500 U/ml), pretreatment with IL-1 (2 U/ml), OD540 / Cell viability upon treatment with TNF (500 U/ml), pretreatment with IL-1 (2 U/ml), %: 4 h pretreatment with IL-1 2 U/ml; for Cell viability upon treatment with TNF (500 U/ml), pretreatment with IL-1 (2 U/ml), OD540 / Cell viability upon treatment with TNF (500 U/ml), pretreatment with IL-1 (2 U/ml), % / Cell viability upon treatment with TNF (500 U/ml), pretreatment with TNF (20 U/ml), OD540 / Cell viability upon treatment with TNF (500 U/ml), pretreatment with TNF (20 U/ml), %: then TNF 500 U/ml for 12 h with sensitizing agent; for Cell viability upon treatment with TNF (500 U/ml), pretreatment with IL-1 (2 U/ml), % / Cell viability upon treatment with TNF (500 U/ml), pretreatment with TNF (20 U/ml), %: % of sensitizing agent alone; for Cell viability upon treatment with TNF (500 U/ml), pretreatment with TNF (20 U/ml), OD540 / Cell viability upon treatment with TNF (500 U/ml), pretreatment with TNF (20 U/ml), %: 4 h pretreatment with TNF 20 U/ml; for Cell viability in absence of TNF, OD540: 12 h with sensitizing agent alone (cycloheximide 50 μg/ml, emetine 10 μg/ml, actinomycin D 5 μg/ml); for Cell viability upon treatment with TNF (500 U/ml), no pretreatment, OD540: TNF 500 U/ml for 12 h together with sensitizing agent; for Cell viability upon treatment with TNF (500 U/ml), no pretreatment, %: TNF 500 U/ml for 12 h with sensitizing agent, % of viability with sensitizing agent alone. The procedure: Cytolytic and protective (desensitization) activities of the cytokines were determined in all the figures using SV-80 cells which, for measurement of cytolytic activity, were incubated with serial dilutions of the tested cytokine for 12 hours together with 50 μg/ml CHI; for measuring protective activity, they were incubated for 4 hours with the tested cytokine and then for 12 hours with TNF, at the indicated concentrations, together with 50 μg/ml CHI. The extent of cell killing was quantitated by the neutral-red uptake assay. A unit of cytolytic activity is defined as the concentration of the tested cytokine at which the amount of cells remaining viable was 50% of those that remained viable on incubation with CHI alone. A unit of protective activity is defined as that cytokine concentration protecting 50% of the cells from killing by TNF.
IL-1 or TNF provide protection not only against the cytotoxicity mediated in the presence of CHI, but also against killing of cells in which synthesis of proteins has been suppressed by other agents.
SV-80 cells following 4 h pretreatment with IL1 or TNF or without such
pretreatment were tested for their vulnerability to the cytolytic effect
of TNF applied for 12 h together with the indicated sensitizing agents.
Viability of the cells is presented as neutral red uptake (OD540)
and, in cultures with TNF, percentagewise as compared to the viability in
cultures incubated with the sensitizing agent alone.

Data set [1] deals with receptors for TNF on SV-80 cells. Kind of data set: Binding of radiolabelled TNF to SV-80 cells, Scatchard plot analysis. It is filed as cell-based, human. As to conditions: Scatchard analysis of 125I-TNF binding. As for the experimental part:
(PMA-4-beta-phorbol-12-myristate-13-acetate).
Binding of ^125 I-rTNF (at 3.6 ng/ml), ^125 I-rIL-1 (at 49 ng/ml) and ^125 I-rIFN-gamma (at 13 ng/ml) to the indicated cells was determined at […] as described below. Competition of IL-1 and TNF with each other for binding to their receptors was examined by applying the nonlabelled cytokines, at the indicated concentrations, simultaneously with the labelled proteins to the binding asay. The effect of pretreatment with IL-1 or TNF was examined by applying the proteins on the cells at 37° C. for 4 h prior to application of the labelled cytokines. Human TNF and IFN-gamma were radiolabelled as previously described (30, 44); the first with the chloramine T reagent to specific radioactivity of 42 Ci/g, and the second with the Bolton and Hunter reagent to specific radioactivity of 18 Ci/g. IL-1 was radioiodinated with the chloramine T reagent (31) to specific radioactivity of 40 Ci/g. Recovery of bioactivity following the iodination, as estimated by measuring the protective effect of the protein against the cytotoxicity of TNF (25) was over 95%. […] Specific binding was calculated by subtracting the values of nonspecific binding from the binding observed with the labelled cytokines alone. […]

The test system of the next data set is Balb/c mice. Kind of data set: Lethality of TNF and IL-1 in mice sensitized with Act-D or GalN. The data set is classed as in vivo, mouse. As to conditions: i.p., sensitizer injected 10 minutes before TNF or IL-1. As for the experimental part:
Nine to thirteen weeks old Balb/c mice were used in all experiments. TNF, IL-1, LPS, actinomycin-D (Act-D) and D-galactosamine (GalN) were solubilized in PBS and injected i.p.; each in aliquots of 0.5 ml. For lethality determination TNF, IL-1 or LPS were administered alone or 10 minutes following injection of Act-D or GalN; for desensitization experiments mice were injected with TNF or IL-1 12 h prior to a challenge consisting of the same regimen as the lethality testing. Following treatments the mice were continuously observed for a period of 72 h in order to determine the time of their death. In all cases, mice that survived 72 h appeared completely normal at that time. […] All experiments were performed in duplicate with qualitatively the same results. Two mice were examined for each experimental point, in each of the experiments. Their actual survival time as well as the average of the survival time of the two mice used for each of the points are presented.
In an attempt to elucidate the nature of the sensitizing effect of Act-D and of GalN, it was tested whether injection of TNF or IL-1 in the absence of these agents affects the response of mice to a subsequent injection of TNF or IL-1 together with Act-D or GalN. […]

Turning to `CC[C@H]1CN2CCc3cc(OC)c(OC)cc3[C@@H]2C[C@@H]1C[C@H]1NCCc2cc(OC)c(OC)cc21` [emetine], in the data set with SV-80 cells, the “Cell viability upon treatment with TNF (500 U/ml), pretreatment with IL-1 (2 U/ml), OD540” value (shortened to “Cell viability upon treatment … (2 U/ml), OD540”) was found to be 0.220 OD540; the “Cell viability upon treatment with TNF (500 U/ml), pretreatment with IL-1 (2 U/ml), %” value (“Cell viability upon treatment … (2 U/ml), %” for short) came out at 84%; the “Cell viability upon treatment with TNF (500 U/ml), pretreatment with TNF (20 U/ml), OD540” value (“Cell viability upon treatment … (20 U/ml), OD540” below) worked out at 0.234 OD540; the “Cell viability upon treatment with TNF (500 U/ml), pretreatment with TNF (20 U/ml), %” value (from here on “Cell viability upon treatment … (20 U/ml), %”) came out at 89%. In the data set on SV-80 cells, the “Cell viability in absence of TNF, OD540” value worked out at 0.262 OD540; the “Cell viability upon treatment with TNF (500 U/ml), no pretreatment, OD540” value stood at 0.029 OD540; the “Cell viability upon treatment with TNF (500 U/ml), no pretreatment, %” value is on record as 11%.
Consider `C[C@@H]1C[C@@H]([C@H](O)CC2CC(=O)NC(=O)C2)C(=O)[C@@H](C)C1` [cycloheximide], for which, in the data set with SV-80 cells, the “Cell viability upon treatment … (2 U/ml), OD540” value is given as 0.163 OD540; the “Cell viability upon treatment … (2 U/ml), %” value is on record as 72%; the “Cell viability upon treatment … (20 U/ml), OD540” value was found to be 0.195 OD540; the “Cell viability upon treatment … (20 U/ml), %” value is 86%. For the same molecule, in the data set with SV-80 cells, the “Cell viability in absence of TNF, OD540” value turned out to be 0.226 OD540; the “Cell viability upon treatment with TNF (500 U/ml), no pretreatment, OD540” value amounted to 0.020 OD540; the “Cell viability upon treatment with TNF (500 U/ml), no pretreatment, %” value is 9%.
As to `CCCCCCCCCCCCCC(=O)OC1C(C)C2(O)C(C=C(CO)CC3(O)C(=O)C(C)=CC32)C2C(C)(C)C12OC(C)=O` (stereo not drawn) [PMA, 4-beta-phorbol-12-myristate-13-acetate], the “Effect on number and affinity of binding sites for TNF” value in data set [1] was “affect only the number of binding sites for TNF and not their affinity”.
As for `Cc1c2oc3c(C)ccc(C(=O)N[C@@H]4C(=O)N[C@H](C(C)C)C(=O)N5CCC[C@H]5C(=O)N(C)CC(=O)N(C)[C@@H](C(C)C)C(=O)O[C@@H]4C)c3nc-2c(C(=O)N[C@@H]2C(=O)N[C@H](C(C)C)C(=O)N3CCC[C@H]3C(=O)N(C)CC(=O)N(C)[C@@H](C(C)C)C(=O)O[C@@H]2C)c(N)c1=O` [actinomycin D] (I: T[dV]P[Sar][NMeV] / II: T[dV]P[Sar][NMeV]; ester I:1-I:C, II:1-II:C; linker I:N-II:N via Actinocin(9to1)), the “Sensitization of mice to the lethal effect of TNF and IL-1” value in the data set on Balb/c mice is “sensitize mice to the lethal effect of TNF and IL-1”. Further, in the data set with SV-80 cells, the “Cell viability upon treatment … (2 U/ml), OD540” value was 0.215 OD540; the “Cell viability upon treatment … (2 U/ml), %” value was found to be 88%; the “Cell viability upon treatment … (20 U/ml), OD540” value worked out at 0.236 OD540; the “Cell viability upon treatment … (20 U/ml), %” value turned out to be 97%. For the same molecule, in the data set with SV-80 cells, the “Cell viability in absence of TNF, OD540” value was 0.243 OD540; the “Cell viability upon treatment with TNF (500 U/ml), no pretreatment, OD540” value is 0.052 OD540; the “Cell viability upon treatment with TNF (500 U/ml), no pretreatment, %” value stood at 21%.
For the molecule `N[C@H]1C(O)O[C@H](CO)[C@H](O)[C@@H]1O` (stereo partly drawn) [GalN, D-galactosamine], the “Sensitization of mice to the lethal effect of TNF and IL-1” value in the data set on Balb/c mice is “sensitize mice to the lethal effect of TNF and IL-1”.
